Measured values published in the CheMixHub viscosity set.
“And” between values parts separate entries of the source, which are not always exact repeats. Equal entries are not always repeated. ± gives the uncertainty stated by the source.

Assay: xn = mol fraction of the nth substance listed

Compound: CS(C)=O + O
- viscosity (303.15 K, 101 kPa, x1 = 0.01869): 0.91 ± 0.27 mPa·s
- viscosity (303.15 K, 101 kPa, x1 = 0.0406): 1.05 ± 0.32 mPa·s
- viscosity (303.15 K, 101 kPa, x1 = 0.05): 1.176 ± 0.011 mPa·s
- viscosity (303.15 K, 101 kPa, x1 = 0.15): 2.183 ± 0.021 mPa·s
- viscosity (303.15 K, 101 kPa, x1 = 0.25): 2.978 ± 0.034 mPa·s
- viscosity (303.15 K, 101 kPa, x1 = 0.35): 3.26 ± 0.043 mPa·s
- viscosity (303.15 K, 101 kPa, x1 = 0.48): 2.884 ± 0.045 mPa·s
- viscosity (303.15 K, 101 kPa, x1 = 0.73): 2.115 ± 0.044 mPa·s
- viscosity (303.15 K, 101.3 kPa, x1 = 0.012): 0.88 ± 0.023 mPa·s
- viscosity (303.15 K, 101.3 kPa, x2 = 0.1906): 2.071 ± 0.054 mPa·s
- viscosity (303.15 K, 101.3 kPa, x2 = 0.3252): 2.348 ± 0.061 mPa·s
- viscosity (303.15 K, 101.3 kPa, x2 = 0.5203): 2.958 ± 0.077 mPa·s
- viscosity (303.15 K, 101.3 kPa, x2 = 0.6501): 3.218 ± 0.084 mPa·s
- viscosity (303.15 K, 101.3 kPa, x2 = 0.743): 2.942 ± 0.077 mPa·s
- viscosity (303.15 K, 101.3 kPa, x2 = 0.8183): 2.402 ± 0.063 mPa·s
- viscosity (303.15 K, 101.3 kPa, x2 = 0.8668): 1.941 ± 0.051 mPa·s
- viscosity (303.15 K, 101.3 kPa, x2 = 0.9101): 1.536 ± 0.04 mPa·s
- viscosity (303.15 K, 101.3 kPa, x2 = 0.9751): 0.981 ± 0.026 mPa·s
- viscosity (308.15 K, 101 kPa, x1 = 0.05): 1.065 ± 0.01 mPa·s
- viscosity (308.15 K, 101 kPa, x1 = 0.15): 1.942 ± 0.02 mPa·s
- viscosity (308.15 K, 101 kPa, x1 = 0.25): 2.606 ± 0.03 mPa·s
- viscosity (308.15 K, 101 kPa, x1 = 0.35): 2.84 ± 0.037 mPa·s
- viscosity (308.15 K, 101 kPa, x1 = 0.48): 2.512 ± 0.039 mPa·s and 2.733 ± 0.081 mPa·s
- viscosity (308.15 K, 101 kPa, x1 = 0.73): 1.86 ± 0.038 mPa·s
- viscosity (308.15 K, 101.3 kPa, x1 = 0.012): 0.792 ± 0.021 mPa·s
- viscosity (308.15 K, 101.3 kPa, x2 = 0.1906): 1.876 ± 0.049 mPa·s
- viscosity (308.15 K, 101.3 kPa, x2 = 0.3252): 2.109 ± 0.055 mPa·s
- viscosity (308.15 K, 101.3 kPa, x2 = 0.5203): 2.607 ± 0.068 mPa·s
- viscosity (308.15 K, 101.3 kPa, x2 = 0.6501): 2.802 ± 0.073 mPa·s
- viscosity (308.15 K, 101.3 kPa, x2 = 0.743): 2.558 ± 0.067 mPa·s
- viscosity (308.15 K, 101.3 kPa, x2 = 0.8183): 2.097 ± 0.055 mPa·s
- viscosity (308.15 K, 101.3 kPa, x2 = 0.8668): 1.708 ± 0.044 mPa·s
- viscosity (308.15 K, 101.3 kPa, x2 = 0.9101): 1.36 ± 0.035 mPa·s
- viscosity (308.15 K, 101.3 kPa, x2 = 0.9455): 1.091 ± 0.028 mPa·s
- viscosity (308.15 K, 101.3 kPa, x2 = 0.9751): 0.879 ± 0.023 mPa·s
- viscosity (313.15 K, 101 kPa, x1 = 0.01): 0.72 ± 0.02 mPa·s
- viscosity (313.15 K, 101 kPa, x1 = 0.01869): 0.73 ± 0.22 mPa·s
- viscosity (313.15 K, 101 kPa, x1 = 0.025): 0.79 ± 0.02 mPa·s
- viscosity (313.15 K, 101 kPa, x1 = 0.039): 0.87 ± 0.02 mPa·s
- viscosity (313.15 K, 101 kPa, x1 = 0.0406): 0.85 ± 0.26 mPa·s
- viscosity (313.15 K, 101 kPa, x1 = 0.05): 0.981 ± 0.008 mPa·s
- viscosity (313.15 K, 101 kPa, x1 = 0.055): 0.96 ± 0.03 mPa·s
- viscosity (313.15 K, 101 kPa, x1 = 0.071): 1.07 ± 0.03 mPa·s
- viscosity (313.15 K, 101 kPa, x1 = 0.09): 1.19 ± 0.03 mPa·s
- viscosity (313.15 K, 101 kPa, x1 = 0.11): 1.33 ± 0.03 mPa·s
- viscosity (313.15 K, 101 kPa, x1 = 0.13): 1.5 ± 0.04 mPa·s
- viscosity (313.15 K, 101 kPa, x1 = 0.15): 1.704 ± 0.019 mPa·s
- viscosity (313.15 K, 101 kPa, x1 = 0.16): 1.69 ± 0.04 mPa·s
- viscosity (313.15 K, 101 kPa, x1 = 0.19): 1.89 ± 0.05 mPa·s
- viscosity (313.15 K, 101 kPa, x1 = 0.25): 2.296 ± 0.029 mPa·s
- viscosity (313.15 K, 101 kPa, x1 = 0.26): 2.24 ± 0.06 mPa·s
- viscosity (313.15 K, 101 kPa, x1 = 0.3): 2.39 ± 0.06 mPa·s
- viscosity (313.15 K, 101 kPa, x1 = 0.35): 2.521 ± 0.036 mPa·s
- viscosity (313.15 K, 101 kPa, x1 = 0.41): 2.48 ± 0.06 mPa·s
- viscosity (313.15 K, 101 kPa, x1 = 0.48): 2.22 ± 0.034 mPa·s and 2.34 ± 0.06 mPa·s
- viscosity (313.15 K, 101 kPa, x1 = 0.57): 2.16 ± 0.06 mPa·s
- viscosity (313.15 K, 101 kPa, x1 = 0.67): 1.95 ± 0.05 mPa·s
- viscosity (313.15 K, 101 kPa, x1 = 0.73): 1.72 ± 0.035 mPa·s
- viscosity (313.15 K, 101 kPa, x1 = 0.81): 1.73 ± 0.04 mPa·s
- viscosity (313.15 K, 101.3 kPa, x1 = 0.012): 0.718 ± 0.019 mPa·s
- viscosity (313.15 K, 101.3 kPa, x2 = 0.1906): 1.709 ± 0.045 mPa·s
- viscosity (313.15 K, 101.3 kPa, x2 = 0.3252): 1.905 ± 0.05 mPa·s
- viscosity (313.15 K, 101.3 kPa, x2 = 0.5203): 2.313 ± 0.06 mPa·s
- viscosity (313.15 K, 101.3 kPa, x2 = 0.6501): 2.459 ± 0.064 mPa·s
- viscosity (313.15 K, 101.3 kPa, x2 = 0.743): 2.24 ± 0.058 mPa·s
- viscosity (313.15 K, 101.3 kPa, x2 = 0.8183): 1.848 ± 0.048 mPa·s
- viscosity (313.15 K, 101.3 kPa, x2 = 0.8668): 1.513 ± 0.039 mPa·s
- viscosity (313.15 K, 101.3 kPa, x2 = 0.9101): 1.214 ± 0.032 mPa·s
- viscosity (313.15 K, 101.3 kPa, x2 = 0.9455): 0.978 ± 0.025 mPa·s
- viscosity (313.15 K, 101.3 kPa, x2 = 0.9751): 0.794 ± 0.021 mPa·s
- viscosity (318.15 K, 101 kPa, x1 = 0.055): 0.847 ± 0.022 mPa·s
- viscosity (318.15 K, 101 kPa, x1 = 0.48): 2.066 ± 0.079 mPa·s
- viscosity (318.15 K, 101 kPa, x2 = 0.047): 1.423 ± 0.014 mPa·s
- viscosity (318.15 K, 101 kPa, x2 = 0.089): 1.457 ± 0.015 mPa·s
- viscosity (318.15 K, 101 kPa, x2 = 0.186): 1.553 ± 0.018 mPa·s
- viscosity (318.15 K, 101 kPa, x2 = 0.522): 2.083 ± 0.036 mPa·s
- viscosity (318.15 K, 101 kPa, x2 = 0.59): 2.164 ± 0.04 mPa·s
- viscosity (318.15 K, 101.3 kPa, x1 = 0.012): 0.654 ± 0.017 mPa·s
- viscosity (318.15 K, 101.3 kPa, x2 = 0.5203): 2.065 ± 0.054 mPa·s
- viscosity (318.15 K, 101.3 kPa, x2 = 0.743): 1.976 ± 0.051 mPa·s
- viscosity (318.15 K, 101.3 kPa, x2 = 0.8183): 1.637 ± 0.043 mPa·s
- viscosity (318.15 K, 101.3 kPa, x2 = 0.8668): 1.348 ± 0.035 mPa·s
- viscosity (318.15 K, 101.3 kPa, x2 = 0.9101): 1.09 ± 0.028 mPa·s
- viscosity (318.15 K, 101.3 kPa, x2 = 0.9455): 0.884 ± 0.023 mPa·s
- viscosity (318.15 K, 101.3 kPa, x2 = 0.9751): 0.722 ± 0.019 mPa·s
- viscosity (323.15 K, 101 kPa, x1 = 0.01869): 0.62 ± 0.19 mPa·s
- viscosity (323.15 K, 101 kPa, x1 = 0.0406): 0.71 ± 0.21 mPa·s
- viscosity (323.15 K, 101.3 kPa, x1 = 0.012): 0.6 ± 0.016 mPa·s
- viscosity (323.15 K, 101.3 kPa, x2 = 0.1906): 1.428 ± 0.037 mPa·s
- viscosity (323.15 K, 101.3 kPa, x2 = 0.3252): 1.577 ± 0.041 mPa·s
- viscosity (323.15 K, 101.3 kPa, x2 = 0.5203): 1.853 ± 0.048 mPa·s
- viscosity (323.15 K, 101.3 kPa, x2 = 0.6501): 1.931 ± 0.05 mPa·s
- viscosity (323.15 K, 101.3 kPa, x2 = 0.743): 1.754 ± 0.046 mPa·s
- viscosity (323.15 K, 101.3 kPa, x2 = 0.8183): 1.46 ± 0.038 mPa·s
- viscosity (323.15 K, 101.3 kPa, x2 = 0.8668): 1.211 ± 0.032 mPa·s
- viscosity (323.15 K, 101.3 kPa, x2 = 0.9101): 0.985 ± 0.026 mPa·s
- viscosity (323.15 K, 101.3 kPa, x2 = 0.9455): 0.805 ± 0.021 mPa·s
- viscosity (323.15 K, 101.3 kPa, x2 = 0.9751): 0.66 ± 0.017 mPa·s
